The results in this text go back to ChEMBL document CHEMBL5303573, “Mapping human microbiome drug metabolism by gut bacteria and their genes” (Nature, 2019).

The nature of data set [1]: The drug is tested on Salmonella typhimurium strain: LT2 for biotransformation. The drug concentrations were measured before and after a 12-h incubation by liquid-chromatography-coupled mass spectrometry (LC–MS). The settings on record: salmonella enterica subsp. enterica, 2 µM.
The conditions of data set [2]: clostridioides difficile, 12 h, 2 µM.
Description: The drug is tested on Clostridium difficile strain: 120 for biotransformation. The drug concentrations were measured before and after a 12-h incubation by liquid-chromatography-coupled mass spectrometry (LC–MS)
Data set [3] in a line: The drug is tested on Proteus penneri strain: ATCC35198 for biotransformation. The drug concentrations were measured before and after a 12-h incubation by liquid-chromatography-coupled mass spectrometry (LC–MS). The settings on record: 2 µM.

In the case of `CCCC(=O)Nc1ccc(OCC(O)CNC(C)C)c(C(C)=O)c1` (centres undefined) [ACEBUTOLOL], the “Bacterial Biotransformation” value in data set [1] and in data set [2] was “Compound NOT metabolized” in each case.
For the molecule `C=CCc1ccccc1OCC(O)CNC(C)C` (centres undefined) [ALPRENOLOL], the “Bacterial Biotransformation” value in data set [1] is recorded as “Compound NOT metabolized”.
Turning to `C[C@@H]1CC[C@H]2[C@@H](C)C(=O)O[C@@H]3O[C@@]4(C)CC[C@@H]1[C@]32OO4` [ARTEMISININ], the “Bacterial Biotransformation” value in data set [2] is listed as “Compound metabolized”.
Take `CC(C)NCC(O)COc1ccc(CC(N)=O)cc1` (centres undefined) [ATENOLOL]: the “Bacterial Biotransformation” value in data set [3], in data set [1] and in data set [2] was “Compound NOT metabolized” each time.
Regarding `CC(C)NCC(O)COc1ccc(CCOCC2CC2)cc1` (centres undefined) [BETAXOLOL], the “Bacterial Biotransformation” value in data set [3] and in data set [2] was “Compound NOT metabolized” throughout.
As for `CC(=O)Oc1ccc(C(c2ccc(OC(C)=O)cc2)c2ccccn2)cc1` [BISACODYL], the “Bacterial Biotransformation” value in data set [1] was “Compound metabolized”.
For the molecule `COc1ccccc1OCCNCC(O)COc1cccc2[nH]c3ccccc3c12` (centres undefined) [CARVEDILOL], the “Bacterial Biotransformation” value in data set [2] is given as “Compound NOT metabolized”.
For `O=C(O)COCCN1CCN(C(c2ccccc2)c2ccc(Cl)cc2)CC1` (centres undefined) [CETIRIZINE], the “Bacterial Biotransformation” value is “Compound NOT metabolized” in data set [3] and “Compound metabolized” in data set [1].
As for `CN/C(=N/CCSCc1nc[nH]c1C)NC#N` [CIMETIDINE], the “Bacterial Biotransformation” value in data set [3], in data set [1] and in data set [2] was “Compound NOT metabolized” each time.
On to `Clc1cccc(Cl)c1N=C1NCCN1` [CLONIDINE], for which the “Bacterial Biotransformation” value in data set [3], in data set [1] and in data set [2] was “Compound NOT metabolized” in each case.
As to `COC(=O)[C@H](c1ccccc1Cl)N1CCc2sccc2C1.O=S(=O)(O)O` [CLOPIDOGREL BISULFATE], the “Bacterial Biotransformation” value in data set [3] and in data set [1] was “Compound NOT metabolized” throughout.
Take `CN1CCN(C2=Nc3cc(Cl)ccc3Nc3ccccc32)CC1` [CLOZAPINE]: the “Bacterial Biotransformation” value in data set [3] and in data set [1] was “Compound NOT metabolized” in each case.
Consider `CN(C)CCC=C1c2ccccc2C=Cc2ccccc21` [CYCLOBENZAPRINE], for which, in data set [3], the “Bacterial Biotransformation” value is on record as “Compound NOT metabolized”.
Regarding `O=P1(N(CCCl)CCCl)NCCCO1` (centres undefined) [CYCLOPHOSPHAMIDE ANHYDROUS], the “Bacterial Biotransformation” value in data set [3] and in data set [1] was “Compound NOT metabolized” in each case.
Regarding `c1ccc([C@H]2CN3CCSC3=N2)cc1` [LEVAMISOLE], the “Bacterial Biotransformation” value in data set [3] and in data set [2] was “Compound metabolized” each time.
As for `CCOc1cc(CC(=O)N[C@@H](CC(C)C)c2ccccc2N2CCCCC2)ccc1C(=O)O` [REPAGLINIDE], the “Bacterial Biotransformation” value in data set [2] is given as “Compound NOT metabolized”.
